One assay deals with Mu-type opioid receptor (Cavia porcellus, UniProt P97266). The experiment in a line: Displacement of [3H]DAMGO from Hartley guinea pig mu opioid receptor by liquid scintillation counter.
Assay [1] is described as follows: Displacement of [3H]NTI from Hartley guinea pig delta opioid receptor by liquid scintillation counter. On the set-up: species or system Cavia porcellus.
The target of assay [2] is Kappa-type opioid receptor (Cavia porcellus, UniProt P41144). Description: Displacement of […] from Hartley guinea pig kappa opioid receptor by liquid scintillation counter.
Sequence of Kappa-type opioid receptor (P41144 whole entry): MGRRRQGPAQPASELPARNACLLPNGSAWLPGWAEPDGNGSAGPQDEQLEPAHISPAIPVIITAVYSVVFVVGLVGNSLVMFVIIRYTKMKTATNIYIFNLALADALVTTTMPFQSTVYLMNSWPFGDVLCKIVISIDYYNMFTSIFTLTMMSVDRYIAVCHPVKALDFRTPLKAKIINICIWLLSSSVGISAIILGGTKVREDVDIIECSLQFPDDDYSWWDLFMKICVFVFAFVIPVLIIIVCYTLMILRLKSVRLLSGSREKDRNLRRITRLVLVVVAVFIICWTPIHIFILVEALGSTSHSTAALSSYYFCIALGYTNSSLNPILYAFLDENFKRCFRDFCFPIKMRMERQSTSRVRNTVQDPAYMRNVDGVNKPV

Sequence of Mu-type opioid receptor (P97266 whole entry): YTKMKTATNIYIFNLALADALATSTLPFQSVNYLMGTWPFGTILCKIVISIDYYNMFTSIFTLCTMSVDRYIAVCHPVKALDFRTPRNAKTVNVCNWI

Turning to `O=C1c2ccccc2N[C@@]12C[C@]13CCN(CC4CC4)[C@H](Cc4ccc(O)cc41)[C@]3(O)C2`, the inhibitory constant (Ki) at Mu-type opioid receptor is 0.75 nM; in assay [1] it was 2.9 nM; in assay [2], 13.4 nM.
`CN1CC[C@]23c4c5ccc(O)c4O[C@H]2C(=O)C2(Cc4ccccc4C2)C[C@@]3(O)[C@H]1C5` [SPIROINDANYLOXYMORPHONE] had a Ki in assay [1] of 1.4 nM.

Values taken from ChEMBL document CHEMBL1153498, “Aerobic oxidation of indolomorphinan without the 4,5-epoxy bridge and subsequent rearrangement of the oxidation product to spiroindolinonyl-C-normorphinan derivative” (Bioorg Med Chem, 2009).
